Data reported in patent publication US20160002297A1, “THERAPEUTIC AGENTS” (NATIONAL UNIVERSITY OF SINGAPORE, priority 2013, published 2016).
Positions of bridges follow the written chain, without caps; N, C: chain ends. Residues, ends and D or L forms follow the SMILES beside them.

Key:
B16 melanoma = experiment: Pre-established subcutaneous B16 melanoma growth in mice, intravenous treatment; type: in vivo, mouse
Description: X-axis represents the days after inoculation of 5×10^5 tumor cells. Groups consisted of mice receiving cRAA and cRKD given in six doses of 250 μg through tail vein injection on days 8, 9, 10, 11, 12 and 13 (5 mice in each group, each mice with one tumor). (b) Tumor weight at the end of the experiment (day 14). (c) Dissected tumors at the end of experiment. […] Paraffin sections of B16 tumors were probed for microvascular density (MVD), tumor cell proliferation and apoptosis through immunofluoresence staining using anti-CD31, anti-PCNA and TUNEL staining respectively. (f) Quantification of MVD, cell proliferation and apoptosis. Plots represent the mean of 3 fields per section, 3 sections per tumor and 2 tumors per group. **P<0.01. Error bars denote SEM.

ECs = experiment: Cell attachment (EC adhesion) assay; type: cell-based; details: peptide coated on plastic surface
Description: 96-well plates were coated with 50 μl of 1 μM ISM at 4° C. overnight. Nonspecific binding sites were blocked with 1% BSA for 2 h at 37° C. ECs were harvested and incubated in CSC basal medium containing 4 μg/ml neutralizing antibodies or control IgG for 30 min. 2[…]104 cells were plated to each well and allowed to attach for 60 min at 37° C. Attached cells were fixed by 10% formalin and stained with 0.2% crystal violet. Absorbed crystal violet was extracted by 10% acetic acid and quantified by measuring the absorbance of eluted dye at 595 nm with a microplate reader.

HUVECs = experiment: Tube formation assay on Matrigel; type: cell-based, human
Description: HUVECs (1×10^4) were pre-treated with peptides of various concentrations for 30 min before being plated onto the polymerized Matrigel (Millipore, USA) in 15-well μ-slide (Ibidi, Germany). After 4-6 h, capillary network was documented using Zeiss Axiovert200 inverted microscope (Maple Grove, Minn., USA). Tube length was quantified by measuring the length of branches in representative fields using ImageJ software. Plots represented the mean of 3 wells of tubular length in 15-well μ-slide (t SEM).

`N=C(N)NCCC[C@@H]1NC(=O)[C@@H](N)CSSC[C@@H](C(=O)O)NC(=O)[C@H](CC(=O)O)NC(=O)[C@H](CCCCN)NC1=O` [cRKD, Cyclic CRKDC peptide] (H-CRKDC-OH; disulfide 1-5; N-terminus and C-terminus assumed) was tested, and the “tumor angiogenesis, proliferation and apoptosis in pre-established B16 tumor” value (B16 melanoma; anti-CD31, anti-PCNA and TUNEL staining) was “suppressed tumor angiogenesis, proliferation and induced apoptosis”, the “vascularization of pre-established B16 tumors” value (B16 melanoma; compared to control) was “reduced vascularization” and the “pre-established B16 tumor growth” value (B16 melanoma; six doses of 250 μg tail vein on days 8-13) was “inhibits pre-established subcutaneous B16 melanoma growth”. For the same molecule, the “EC attachment and adhesion” value (ECs) was “mediated EC attachment and adhesion”, the “anti-angiogenic activity at 1 μM” value (HUVECs; 1 μM peptide) was “inhibited angiogenesis with similar potency” and the “inhibition of EC tube-like structure formation on Matrigel” value (HUVECs; dose-dependence) was “does-dependently inhibited EC tube-like structure formation”.
